Data on one molecule can be found in US5985926A, “Method for inhibiting intracellular viral replication” (Cell Therapeutics, Inc., priority 1997, dated 1999).

Series [1] deals with HIV-LTR promoter (tat transactivation) in 293-EBNA cells. The series is described as follows: AP reporter gene expression from HIV-LTR promoter with tat expression vector, 293-EBNA cells. The conditions noted are these: 293-EBNA cells, HIV promoter, in words. Type of series: cell-based, HIV; human cells. An outline of the steps: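 293-EBNA cells were transiently co-transfected with an HIV-LTR-driven secreted placental alkaline phosphatase reporter and a tat(1–72) expression plasmid. At 24 h, the medium was switched to serum-free AIM V before compounds were added at various concentrations. Secreted AP activity was read colorimetrically at 405 nm 19–24 h later.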
A general note: In a reporter assay the amount or activity of a reporter protein is the signal.

Series [2] has as its system 293-EBNA cells.

Take `CCCCCCCCNCC(O)CCCCCCCCCN1C(=O)CCN(C)C1=O` (centres unmarked) [CT1829, 3-(11-octylamino-10-hydroxyundecyl)-1-methyldihydrouracil]: the “inhibition of AP expression (HIV-LTR promoter)” value in series [1] is recorded as “inhibit HIV promoter driven expression”. Further, the “effect on cell viability / cytotoxicity” value in series [2] is on record as “minimal cytotoxic effects”.
